# Assay results published in patent publication US12661345B2, “Compositions for the treatment of hypertension” (The George Institute for Global Health, priority 2017, dated 2026).
# Legend:
# LDL = LDL laboratory test in the 3×3 factorial trial; format: in vivo, human; conditions: Week 12 v/s Baseline
# Protocol: (§1) There was a 4 week screening period and another 4-week post study drug observational period.
# (§2) Group 2 received the low-dose BP lowering combination and simvastatin (i.e., telmisartan 20 mg+amlodipine 2.5 mg+simvastatin). Group 3 received the low-dose BP lowering combination and placebo (i.e., telmisartan 20 mg+amlodipine 2.5 mg+placebo). […] Group 9 received double placebo.
# Change in DBP and SBP • 2. Change in LDL Secondary Outcomes: • 1. Tolerability: • a. […] Difference between groups in participant withdrawals from treatment • 2. Safety: Percentage with any severe adverse event (SAE) • 3. Medication adherence: self-reported measures, pill counts BP Measurement:
# Potassium (K+), sodium (Na+), serum creatinine and LDL were measured at screening and at the 12-week end of treatment follow-up visit.
# (§3) All analyses of study outcomes were conducted according to the principle of intention-to-treat. The analyses of continuous outcomes such SBP and LDL-cholesterol at 12 weeks was performed using ANCOVA including the treatment arm and baseline values as a covariate. Additional analyses included interim measurements in a longitudinal model including treatment arm, visit, and treatment by visit interaction as well as the baseline measurement. Within-patient correlations were modelled using generalized estimating equations. A similar approach was applied to binary endpoints with log-binomial regression used in place of linear regression. There were also pre-defined subgroup analyses, baseline BP, baseline LDL, gender and age.
# [1] = system: participants with migraine; test: Subject status / participant withdrawals by visit in the 3×3 factorial trial
# [2] = system: participants with migraine; test: Office blood pressure in 12-week double blind randomized 3×3 factorial trial; format: in vivo, human
# Protocol: as §1
# There was a 4-week screening period and another 4-week post study drug observational period.
# as §2
# Office BP was measured following the recommendations of the Australian National Heart Foundation. Participants were rested in the seated position for 5 minutes, an appropriate cuff size was selected and 3 measurements of BP were recorded using an Omron HEM907 monitor or equivalent validated automated digital BP monitor. Principles of automated office BP measurements were applied whereby the patient was left alone during BP recording.
# as §3
# [3] = Randomization (baseline, before treatment)
# [4] = Week 16 (after 4-week post study drug period)
smiles,measurement,setting,value
"CCC(C)(C)C(=O)O[C@H]1C[C@@H](C)C=C2C=C[C@H](C)[C@H](CC[C@@H]3C[C@@H](O)CC(=O)O3)[C@H]21 [Simvastatin, simvastatin]",Change in LDL from baseline to 12 weeks Mean (SD),LDL,9 −1.0 (0.38) mmol/l
same,Change in LDL from baseline to 12 weeks Q1,LDL,-1.2 mmol/L
same,Change in LDL from baseline to 12 weeks Q2,LDL,-1.0 mmol/L
same,Change in LDL from baseline to 12 weeks Q3,LDL,-0.8 mmol/L
same,Change in LDL from baseline to 12 weeks max,LDL,-1 mmol/L
same,Change in LDL from baseline to 12 weeks min,LDL,-2 mmol/L
same,Discontinuing the study (n/N),[1]; Week 4,0/9
same,Discontinuing the study (percent),[1]; Week 4,(0.0%)
same,Discontinuing: Deceased (n/N),[1]; Week 4,0/0
same,Discontinuing: Deceased (percent),[1]; Week 4,(0.0%)
same,Discontinuing the study (n/N),[1]; Week 8,0/9
same,Discontinuing the study (percent),[1]; Week 8,(0.0%)
same,Discontinuing: Deceased (n/N),[1]; Week 8,0/0
same,Discontinuing: Deceased (percent),[1]; Week 8,(0.0%)
same,Discontinuing the study (n/N),[1]; Week 12,0/9
same,Discontinuing the study (percent),[1]; Week 12,(0.0%)
same,Discontinuing: Deceased (n/N),[1]; Week 12,0/0
same,Discontinuing: Deceased (percent),[1]; Week 12,(0.0%)
same,Deceased (n/N),[1]; Week 16,0/9
same,Deceased (percent),[1]; Week 16,(0.0%)
same,Diastolic Blood Pressure Mean (SD),[2]; [3],9 82.7 (8.43) mmHg
same,Diastolic Blood Pressure Q1,[2]; [3],76.0 mmHg
same,Diastolic Blood Pressure Q2,[2]; [3],81.0 mmHg
same,Diastolic Blood Pressure Q3,[2]; [3],89.0 mmHg
same,Diastolic Blood Pressure max,[2]; [3],96 mmHg
same,Diastolic Blood Pressure min,[2]; [3],72 mmHg
same,Systolic Blood Pressure Mean (SD),[2]; [3],9 124.2 (13.17) mmHg
same,Systolic Blood Pressure Q1,[2]; [3],114.7 mmHg
same,Systolic Blood Pressure Q2,[2]; [3],123.0 mmHg
same,Systolic Blood Pressure Q3,[2]; [3],132.7 mmHg
same,Systolic Blood Pressure max,[2]; [3],147 mmHg
same,Systolic Blood Pressure min,[2]; [3],107 mmHg
same,Diastolic Blood Pressure Mean (SD),[2]; Week 4,9 77.5 (6.98) mmHg
same,Diastolic Blood Pressure Q1,[2]; Week 4,74.0 mmHg
same,Diastolic Blood Pressure Q2,[2]; Week 4,77.7 mmHg
same,Diastolic Blood Pressure Q3,[2]; Week 4,81.3 mmHg
same,Diastolic Blood Pressure max,[2]; Week 4,90 mmHg
same,Diastolic Blood Pressure min,[2]; Week 4,68 mmHg
same,Systolic Blood Pressure Mean (SD),[2]; Week 4,9 122.2 (14.06) mmHg
same,Systolic Blood Pressure Q1,[2]; Week 4,113.7 mmHg
same,Systolic Blood Pressure Q2,[2]; Week 4,119.3 mmHg
same,Systolic Blood Pressure Q3,[2]; Week 4,126.7 mmHg
same,Systolic Blood Pressure max,[2]; Week 4,146 mmHg
same,Systolic Blood Pressure min,[2]; Week 4,102 mmHg
same,Diastolic Blood Pressure Mean (SD),[2]; Week 8,9 77.1 (6.07) mmHg
same,Diastolic Blood Pressure Q1,[2]; Week 8,72.3 mmHg
same,Diastolic Blood Pressure Q2,[2]; Week 8,78.7 mmHg
same,Diastolic Blood Pressure Q3,[2]; Week 8,81.7 mmHg
same,Diastolic Blood Pressure max,[2]; Week 8,84 mmHg
same,Diastolic Blood Pressure min,[2]; Week 8,68 mmHg
same,Systolic Blood Pressure Mean (SD),[2]; Week 8,9 117.0 (11.50) mmHg
same,Systolic Blood Pressure Q1,[2]; Week 8,111.0 mmHg
same,Systolic Blood Pressure Q2,[2]; Week 8,115.3 mmHg
same,Systolic Blood Pressure Q3,[2]; Week 8,124.3 mmHg
same,Systolic Blood Pressure max,[2]; Week 8,135 mmHg
same,Systolic Blood Pressure min,[2]; Week 8,95 mmHg
same,Diastolic Blood Pressure Mean (SD),[2]; Week 12 (end of treatment),9 78.4 (10.70) mmHg
same,Diastolic Blood Pressure Q1,[2]; Week 12 (end of treatment),78.3 mmHg
same,Diastolic Blood Pressure Q2,[2]; Week 12 (end of treatment),81.3 mmHg
same,Diastolic Blood Pressure Q3,[2]; Week 12 (end of treatment),85.7 mmHg
same,Diastolic Blood Pressure max,[2]; Week 12 (end of treatment),87 mmHg
same,Diastolic Blood Pressure min,[2]; Week 12 (end of treatment),54 mmHg
same,Systolic Blood Pressure Mean (SD),[2]; Week 12 (end of treatment),9 117.8 (14.06) mmHg
same,Systolic Blood Pressure Q1,[2]; Week 12 (end of treatment),111.0 mmHg
same,Systolic Blood Pressure Q2,[2]; Week 12 (end of treatment),120.0 mmHg
same,Systolic Blood Pressure Q3,[2]; Week 12 (end of treatment),125.7 mmHg
same,Systolic Blood Pressure max,[2]; Week 12 (end of treatment),135 mmHg
same,Systolic Blood Pressure min,[2]; Week 12 (end of treatment),88 mmHg
same,Change in DBP from baseline to 12 weeks Mean (SD),[2]; Week 12 v/s Baseline,9 −4.3 (8.95) mmHg
same,Change in DBP from baseline to 12 weeks Q1,[2]; Week 12 v/s Baseline,−8.7 mmHg
same,Change in DBP from baseline to 12 weeks Q2,[2]; Week 12 v/s Baseline,−3.7 mmHg
same,Change in DBP from baseline to 12 weeks Q3,[2]; Week 12 v/s Baseline,−0.7 mmHg
same,Change in DBP from baseline to 12 weeks max,[2]; Week 12 v/s Baseline,9 mmHg
same,Change in DBP from baseline to 12 weeks min,[2]; Week 12 v/s Baseline,−22 mmHg
same,Change in SBP from baseline to 12 weeks Mean (SD),[2]; Week 12 v/s Baseline,9 −6.4 (8.24) mmHg
same,Change in SBP from baseline to 12 weeks Q1,[2]; Week 12 v/s Baseline,−12.0 mmHg
same,Change in SBP from baseline to 12 weeks Q2,[2]; Week 12 v/s Baseline,−4.7 mmHg
same,Change in SBP from baseline to 12 weeks Q3,[2]; Week 12 v/s Baseline,0.3 mmHg
same,Change in SBP from baseline to 12 weeks max,[2]; Week 12 v/s Baseline,5 mmHg
same,Change in SBP from baseline to 12 weeks min,[2]; Week 12 v/s Baseline,−19 mmHg
same,Diastolic Blood Pressure Mean (SD),[2]; [4],9 80.5 (7.29) mmHg
same,Diastolic Blood Pressure Q1,[2]; [4],74.3 mmHg
same,Diastolic Blood Pressure Q2,[2]; [4],80.7 mmHg
same,Diastolic Blood Pressure Q3,[2]; [4],87.0 mmHg
same,Diastolic Blood Pressure max,[2]; [4],90 mmHg
same,Diastolic Blood Pressure min,[2]; [4],71 mmHg
same,Systolic Blood Pressure Mean (SD),[2]; [4],9 118.3 (10.11) mmHg
same,Systolic Blood Pressure Q1,[2]; [4],109.7 mmHg
same,Systolic Blood Pressure Q2,[2]; [4],116.7 mmHg
same,Systolic Blood Pressure Q3,[2]; [4],123.0 mmHg
same,Systolic Blood Pressure max,[2]; [4],136 mmHg
same,Systolic Blood Pressure min,[2]; [4],107 mmHg
